Experimental data: patent US8501911B2, “Methods of reducing inflammation and mucus hypersecretion” (Biomarck Pharmaceuticals, Ltd, priority 1999, dated 2013)
Several values for one entry are separate records, joined by “and”; a condition that tells them apart may be missing. Equal values may be shown once. Residues, ends and D or L forms follow the SMILES beside them. *: point of attachment. Myristoyl = CCCCCCCCCCCCCC(=O)*

Columns and labels:
[1] = test system: MARCKS-related mucus secretion; assay: Inhibition of MARCKS-related mucus (mucin) secretion, Table 1; assay type: cell-based; conditions: at 100 μM of test peptide
U937 cells = assay: Inhibition of lysozyme release from U937 cells; assay type: cell-based, human; conditions: for % Inhibition Lysozyme: at 50 μM of test peptide, 100 nM PMA; for Effect on PMA stimulated lysozyme secretion: pre-incubation with 50 to 100 μM (RNS: any time point or concentration tested)
Procedure: U937 is a monocyte-like human cell line which was purchased from American Type Culture Collection (ATCC) Rockville, Md. (catalog #CRL-15932). The cells were maintained in medium consisting of RPMI 1640 with glutamine supplemented with 10% heat inactivated fetal bovine serum (Gibco, Carlsbad, Calif.), 50 IU/mL, penicillin, 50 μg/mL streptomycin at 37° C. in an atmosphere containing 5% CO2. U937 cells were washed and resuspended at 2.5×10^6 cells/mL in phenol red free RPMI-1640 medium (Cellgro, Mediatech Inc.). Aliquots of cells in 15 mL plastic tubes were preincubated with indicated concentrations of test peptides (dissolved in PBS, pH 7.0) for 10 min at 37° C. The cells were then stimulated with 100 nM PMA for 1 hour. The cells were then centrifuged at 400×g for 5 min at 4° C. Lysozyme released from U937 cells was measured using spectrophotometric assay as described previously by Ralph et al., 1976. (Ralph P, Moore M A S, and Nilsson K. Lysozyme synthesis by established human and murine histocytic lymphoma cell lines. J. Exp. Med. 143:1528-33, 1976). Briefly. 100 μL of supernatants were placed in a 96-well microtiter plate and mixed with 100 μL of a Micrococcus lysodeikticus (Sigma-Aldrich) suspension (0.3 mg/mL in 0.1 M sodium phosphate buffer, pH 7.0), incubated for […] at room temperature and decrease in absorbance at 450 nm was measured. Chicken egg white lysozyme (EMD Biosciences) was used as a standard.

NHBE cells = assay: Mucin secretion from NHBE cells exposed to kinase activators/reagents alone (ELISA); assay type: cell-based, human; conditions: for Mucin secretion as percent of control: 15 min
Procedure: To determine the potential role of PKC and/or PKG in the mucin secretory process, NHBE cells were exposed to the following two specific protein kinase activators: the phorbol ester, phorbol 12-myristate 13-acetate (PMA), for activation of PKC, and the nonhydrolyzable cGMP analogue, 8-Br-cGMP, for activation of PKG.
NHBE Cell Culture—Expansion, cryopreservation, and culture of NHBE cells in the air/liquid interface were performed as described previously. See, Krunkosky et al. Briefly, NHBE cells (Clonetics, San Diego, Calif.) were seeded in vented T75 tissue culture flasks (500 cells/cm^2) and cultured until cells reached 75-80% confluence. Cells were then dissociated by trypsin/EDTA and frozen as passage-2. Air/liquid interface culture was initiated by seeding passage-2 cells (2×10^4 cells/cm^2) in […]® clear culture inserts (Costar, Cambridge, Mass.) that were thinly coated with rat tail collagen, type 1 (Collaborative Biomedical, Bedford, Mass.). Cells were cultured submerged in medium in a humidified 95% air, 5% CO2 environment for 5-7 days until nearly confluent. At that time, the air/liquid interface was created by removing the apical medium and feeding cells basalaterally. Medium was renewed daily thereafter. Cells were cultured for an additional 14 days to allow for full differentiation.
Measurement of Mucin Secretion by ELISA—Before collection of “base line” and “test” mucin samples, the accumulated mucus at the apical surface of the cells was removed by washing with phosphate-buffered saline, pH 7.2. To collect the base-line secretion, cells were incubated with medium alone, and secreted mucin in the apical medium was collected and reserved. Cells were rested for 24 h and then exposed to medium containing the selected stimulatory and/or inhibitory reagents (or appropriate controls), after which secreted mucin was collected and reserved as the test sample. Incubation times for the base line and the test were the same but varied depending on the test reagent utilized. Both base line and test secretions were analyzed by ELISA using an antibody capture method as known in the art. See, e.g., Harlow et al., Antibodies: A Laboratory Manual, pp. 570-573, Cold Spring Harbor Laboratory, Cold Spring Harbor, N.Y. (1988). The primary antibody for this assay was 17Q2 (Babco, Richmond, Calif.), a monoclonal antibody that reacts specifically with a carbohydrate epitope on human airway mucins. […] Wright et al., Am. J. Physiol. 271, L854-L861 (1996). Levels of mucin secretion were reported as percentage of the medium control.
Mucus secreted from the airway epithelial cells in vitro after stimulation by activators was assessed using an ELISA (antibody capture method) (E. Harlow, D. Lane. “Antibodies: A Laboratory Manual.” New York: Cold Spring Harbor Laboratory Press, 1988), wherein the collected mucus is bound directly to the ELISA plate. Mucus was detected using an antibody raised against monkey airway mucus (Lin et al. Am J Respir Cell Mol Biol 1:41, 1989).

| Compound | % Inhibition Mucin [1] [%] | % Inhibition Lysozyme (U937 cells) [%] | further results |
| --- | --- | --- | --- |
| CCCCCCCCCCCCCC(=O)NCC(=O)N[C@@H](C)C(=O)N[C@@H](CCC(N)=O)C(=O)N[C@@H](Cc1ccccc1)C(=O)N[C@@H](CO)C(=O)N[C@@H](CCCCN)C(=O)N[C@H](C(=O)N[C@@H](C)C(=O)N[C@@H](C)C(=O)N[C@@H](CCCCN)C(=O)NCC(=O)N[C@@H](CCC(=O)O)C(=O)N[C@@H](C)C(=O)N[C@@H](C)C(=O)N[C@@H](C)C(=O)N[C@@H](CCC(=O)O)C(=O)N[C@@H](CCCNC(=N)N)C(=O)N1CCC[C@H]1C(=O)NCC(=O)N[C@@H](CCC(=O)O)C(=O)N[C@@H](C)C(=O)N[C@@H](C)C(=O)N[C@H](C(=O)N[C@@H](C)C(=O)O)C(C)C)[C@@H](C)O [MANS peptide] (Myristoyl-GAQFSKTAAKGEAAAERPGEAAVA-OH; C-terminus assumed) | 81.5 | 40.8 | Effect on PMA stimulated lysozyme secretion (U937 cells): significantly attenuated |
| CCCCCCCCCCCCCC(=O)O[C@@H]1[C@@H](C)[C@@]2(O)[C@@H](C=C(CO)C[C@]3(O)C(=O)C(C)=C[C@@H]23)[C@@H]2C(C)(C)[C@]12OC(C)=O [PMA, phorbol 12-myristate 13-acetate] |  |  | Mucin secretion as percent of control (NHBE cells; reagent 100 nM alone): 123% and 122%; Mucin secretion in response to PMA alone (NHBE cells; various concentrations and times, up to 1 μM for 2 h): did not induce significant mucin secretion |
| CCCCCCCCCCCCCC(=O)NCC(=O)N[C@H](C(=O)N[C@@H](C)C(=O)N1CCC[C@H]1C(=O)N[C@@H](C)C(=O)N[C@@H](C)C(=O)N[C@@H](CCC(=O)O)C(=O)NCC(=O)N[C@@H](C)C(=O)NCC(=O)N[C@@H](C)C(=O)N[C@@H](CCC(=O)O)C(=O)N[C@H](C(=O)N[C@@H](CCCCN)C(=O)N[C@@H](CCCNC(=N)N)C(=O)N[C@@H](C)C(=O)N[C@@H](CO)C(=O)N[C@@H](C)C(=O)N[C@@H](CCC(=O)O)C(=O)N[C@@H](C)C(=O)N[C@@H](CCCCN)C(=O)N[C@@H](CCC(N)=O)C(=O)N[C@@H](C)C(=O)N[C@@H](Cc1ccccc1)C(=O)O)C(C)C)[C@@H](C)O [RNS peptide, reference compound] (Myristoyl-GTAPAAEGAGAEVKRASAEAKQAF-OH; C-terminus assumed) | 0 | 0 | Effect on PMA stimulated lysozyme secretion (U937 cells): did not affect |
| CCCCCCCCCCCCCC(=O)NCC(=O)N[C@@H](C)C(=O)N[C@@H](CCC(N)=O)C(=O)N[C@@H](Cc1ccccc1)C(=O)N[C@@H](CO)C(=O)N[C@@H](CCCCN)C(=O)N[C@H](C(=O)N[C@@H](C)C(=O)N[C@@H](C)C(=O)N[C@@H](CCCCN)C(=O)NCC(=O)N[C@@H](CCC(=O)O)C(=O)O)[C@@H](C)O [SEQ ID NO: 13, N-myristoyl-GAQFSKTAAKGE] (Myristoyl-GAQFSKTAAKGE-OH; C-terminus assumed) | 77 | 85.2 |  |
| CCCCCCCCCCCCCC(=O)NCC(=O)N[C@@H](C)C(=O)N[C@@H](CCC(N)=O)C(=O)N[C@@H](Cc1ccccc1)C(=O)N[C@@H](CO)C(=O)N[C@@H](CCCCN)C(=O)N[C@H](C(=O)N[C@@H](C)C(=O)N[C@@H](C)C(=O)N[C@@H](CCCCN)C(=O)O)[C@@H](C)O [SEQ ID NO: 15, N-myristoyl-GAQFSKTAAK] (Myristoyl-GAQFSKTAAK-OH; C-terminus assumed) | 67.5 | 56.6 |  |
| Nc1nc2c(nc(Br)n2[C@@H]2O[C@@H]3COP(=O)(O)O[C@H]3[C@H]2O)c(=O)[nH]1 [8-Br-cGMP] |  |  | Mucin secretion as percent of control (NHBE cells; reagent 1 μM alone): 109% |
| TNF-α |  |  | Mucin secretion level, % of control (NHBE cells; TNF-α 10 ng/ml 4 h, no secretagogue): 109% |
